In article PMC7395068, “The evolution of strategies to minimise the risk of human drug-induced liver injury (DILI) in drug discovery and development” (Archives of Toxicology, 2020):
Where two headings read alike, the source gives them in different places.

Legend:
[1] = Plasma free fraction (fu) and unbound Cmax (Cmax,u); type: in vitro ADME, human; conditions: unbound plasma Cmax
Protocol: The prediction of DILI severity was evaluated further using the 3D combined HCI assays using plasma-free fraction. The majority of fu values were obtained from literature, when unavailable in-house prediction was utilised. Unbound plasma Cmax concentrations (Cmax,u) were derived by multiplying total plasma Cmax with the corresponding free fraction (fu) for each compound.

PHH = conditions: cited from earlier work
[2] = plasma free fraction; cited from earlier work
[3] = read-out: Human plasma Cmax; total plasma Cmax.tot, median of 9 literature references; cited from earlier work
[4] = test system: primary human hepatocytes, NIH3T3 fibroblasts, BSEP, CYP3A4; conditions: cited from earlier work
hLiMTs [5] = assay: Combined HCI (HCS) and cellular ATP 3D assay in hLiMTs; conditions: for AC50 / minimal effective concentration: Homo sapiens
HepaRG spheroids = assay: Combined HCI (HCS) and cellular ATP 3D assay in HepaRG spheroids; conditions: for AC50 / minimal effective concentration: Homo sapiens
hLiMTs [6] = conditions: cited from earlier work
[7] = cited from earlier work
[8] = test system: HepG2 C3A spheroid, BSEP, Glu/Gal in HepG2 cells, bioactivation; conditions: cited from earlier work
[9] = test system: THLE or HepG2 cells, isolated mitochondria, BSEP; conditions: cited from earlier work
[10] = cited from earlier work; remark: listed apart in the source
[11] = In vitro Assay, ref Proctor 2017
[12] = In vitro Assay, ref Schadt 2015
[13] = Microtissue model structural based (HCI), combined HCS and ATP, MEC < 25 × Cmax.tot cut-off
[14] = Modeled in vitro assays (cytotoxicity, mitochondrial dysfunction, BSEP), ref Aleo et al. 2019

In the case of `CCN(CC)C(=O)/C(C#N)=C/c1cc(O)c(O)c([N+](=O)[O-])c1` [entacapone], the “Human plasma Cmax,u” value [1] is given as 0.072 µM, the “PHH/100xCmax, Proctor (2017)” value (PHH; 2D PHH, ATP, IC50 < 100 × Cmax.tot, ref Proctor et al. 2017) is given as “+VE (IC50 < 100 × Cmax.tot)” and the “PHH/100uM, Proctor (2017)” value (PHH; 2D PHH, ATP, IC50 threshold 100 µM, ref Proctor et al. 2017) is given as “-VE”. For the same molecule, the “PHH ATP <100uM” value (PHH; [11]) was “+VE (IC50 threshold of 100 µM)”, the fu [2] was 0.020 and the Cmax [3] was 3.59 µM. The “DILI in vitro assay prediction, Schadt (2015)” value ([4]; BSEP & Metabolism based, ref Schadt et al. 2015) was “-VE”, the “Cellular toxicity (3T3 cells)” value [4, 12] was “-VE” and the “Combined Assay” value [4, 12] was “-VE”. For the same molecule, the “GSH adduct HML” value [4, 12] was “-VE”, the Hepatocyte cellular toxicity [4, 12] was “-VE” and the “MitoTox 3T3” value [4, 12] was “-VE”. The “TDI CYP3A4” value [4, 12] was “-VE”, the hBSEP inhibition [4, 12] was “-VE” and the AC50 (hLiMTs [5]; read-out: ATP endpoint AC50) was 150 µM. It also gave a minimal effective concentration (hLiMTs [5]; read-out: ATP endpoint MEC) of 125 µM, an AC50 (hLiMTs [5]; read-out: HCS endpoint AC50) of 139 µM and a minimal effective concentration (hLiMTs [5]; read-out: HCS endpoint MEC) of 88.8 µM. For the same molecule, the “DILI prediction hLiMTs (HCS-MEC)” value (hLiMTs [5]; [13]) was “+VE (MEC < 25 × Cmax.tot cut-off)”, the “hLiMTs <25x Avg Cmax ATP” value (hLiMTs [5]; hLiMTs, ATP endpoint, cut-off <25x Avg Cmax) was “-ve” and the “hLiMTs <100x Avg Cmaxu ATP” value (hLiMTs [5]; hLiMTs, ATP endpoint, cut-off <100x Avg Cmaxu) was “-ve”. The “hLiMTs <25x Avg Cmax HCS” value (hLiMTs [5]; hLiMTs, HCS endpoints, cut-off <25x Avg Cmax) was “+ve”, the “hLiMTs <100x Avg Cmaxu HCS” value (hLiMTs [5]; hLiMTs, HCS endpoints, cut-off <100x Avg Cmaxu) was “-ve” and the “hLiMTs <25x Avg Cmax All” value (hLiMTs [5]; hLiMTs, all endpoints (ATP and HCS), cut-off <25x Avg Cmax) was “+ve”. The “hLiMTs Cmax max All” value (hLiMTs [5]; hLiMTs, all endpoints, Cmax max used) was “+ve”, the “hLiMTs Cmax min All” value (hLiMTs [5]; hLiMTs, all endpoints, Cmax min used) was “-ve” and the “hLiMTs <10 uM All” value (hLiMTs [5]; hLiMTs, all endpoints, cut-off <10 uM) was “-ve”. For the same molecule, the “hLiMTs <100x Avg Cmaxu All” value (hLiMTs [5]; hLiMTs, all endpoints, cut-off <100x Avg Cmaxu) was “-ve”, the “HepaRG <25x Avg Cmax ATP” value (HepaRG spheroids; HepaRG, ATP endpoint, cut-off <25x Avg Cmax) was “+ve” and the “HepaRG <100x Avg Cmaxu ATP” value (HepaRG spheroids; HepaRG, ATP endpoint, cut-off <100x Avg Cmaxu) was “-ve”. For the same molecule, the “HepaRG <25x Avg Cmax HCS” value (HepaRG spheroids; HepaRG, HCS endpoints, cut-off <25x Avg Cmax) was “+ve”, the “HepaRG <100x Avg Cmaxu HCS” value (HepaRG spheroids; HepaRG, HCS endpoints, cut-off <100x Avg Cmaxu) was “-ve” and the “HepaRG <25x Avg Cmax All” value (HepaRG spheroids; HepaRG, all endpoints (ATP and HCS), cut-off <25x Avg Cmax) was “+ve”. For the same molecule, the “HepaRG Cmax max All” value (HepaRG spheroids; HepaRG, all endpoints, Cmax max used) was “+ve”, the “HepaRG Cmax min All” value (HepaRG spheroids; HepaRG, all endpoints, Cmax min used) was “+ve” and the “HepaRG <10 uM All” value (HepaRG spheroids; HepaRG, all endpoints, cut-off <10 uM) was “-ve”. The “HepaRG <100x Avg Cmaxu All” value (HepaRG spheroids; HepaRG, all endpoints, cut-off <100x Avg Cmaxu) was “-ve”, the AC50 (HepaRG spheroids; HepaRG, read-out: ATP endpoint AC50) was 115 µM and the minimal effective concentration (HepaRG spheroids; HepaRG, read-out: ATP endpoint MEC) was 45.5 µM. The AC50 (HepaRG spheroids; HepaRG, read-out: HCS endpoint AC50) was 129 µM, the minimal effective concentration (HepaRG spheroids; HepaRG, read-out: HCS endpoint MEC) was 45.4 µM and the “DILI prediction HepaRG spheroids (HCS-MEC)” value (HepaRG spheroids; [13]) was “+VE (MEC < 25 × Cmax.tot cut-off)”. The “hLiMTs ATP <100uM” value (hLiMTs [6]; [11]) was “-VE”, the “hLiMTs/100xCmax, Proctor (2017)” value (hLiMTs [6]; hLiMTs, ATP, IC50 < 100 × Cmax.tot, ref Proctor et al. 2017) was “+VE (IC50 < 100 × Cmax.tot)” and the “hLiMTs/100uM, Proctor (2017)” value (hLiMTs [6]; hLiMTs, ATP, IC50 threshold 100 µM, ref Proctor et al. 2017) was “-VE”. For the same molecule, the “Assigned DILI category” value ([7]; Chen et al. 2016 or literature alignment, ref Chen et al. 2016) was 2, the “In vivo DILI” value ([7]; ref Aleo 2019) was “+VE” and the “In vivo DILI” value ([7]; ref Proctor 2017) was “-VE”. For the same molecule, the “In vivo DILI” value ([7]; ref Schadt 2015) was “-VE”, the “In vivo DILI” value ([7]; ref Williams 2019) was “-VE” and the “Bayesian Machine Learning DILI prediction, Williams (2019)” value ([8]; Bayesian modeling, ref Williams et al. 2019) was “-VE”. For the same molecule, the “Bayesian Machine Learning” value ([8]; In vitro Assay, ref Williams 2019) was “-VE”, the “Partition Hybrid HRM Score” value ([9]; In vitro Assay, ref Aleo 2019) was “+VE” and the “Ro2 Hybrid HRM Score” value ([9]; In vitro Assay, ref Aleo 2019) was “+VE”. The “Partition Hybrid HRM Score ≥4, Aleo (2019)” value [9, 14] was “+VE (Partition Hybrid HRM Score ≥4)”, the “Partition Hybrid HRM Score ≥8, Aleo (2019)” value [9, 14] was “+VE (Partition Hybrid HRM Score ≥8)” and the “Rule of Two hybrid HRM Score ≥3, Aleo (2019)” value [9, 14] was “+VE (Rule of Two hybrid HRM Score ≥3)”. For the same molecule, the “Rule of Two hybrid HRM Score ≥8, Aleo (2019)” value [9, 14] was “-VE”, the “DILI severity category (Chen et al. [2016])” value ([10]; LTKB DILIrank category, ref Chen et al. 2016) was “Less” and the “DILI severity category (Chen 2016)” value ([10]; human DILI classification, LTKB DILIrank, ref Chen et al. 2016) was “Less”. For the same molecule, the DILI severity category ([10]; human DILI severity, ref Chen et al.) was “Less”, the “DILI +VE (5-8), DILI -VE (-4)” value ([10]; ref Chen 2016) was “+VE” and the DILI severity category ([10]; ref Chen 2016) was “vLess-DILI-Concern”.
